In ChEMBL document CHEMBL1131685, “Design and semisynthesis of spermine-sensitive Ribonuclease S'” (Bioorg Med Chem Lett, 1999):

Assays:
[1] = Binding constant for spermine binding to Ribonuclease S (RNA ase) by saturation curve method
[2] = Association constant required to reduce the S-peptide / S-protein association by nonlinear curve fitting analysis; format: ADME

Row | Compound | Log K [1] | Log K [2]
1 | C1CNCCNCCNCCN1 | 3.7 | 
2 | NCCCCNCCCN | 5.4 | 
3 | NCCCNCCCCNCCCN | 5 | 
4 | NCCN(CCN)CCN | 5 | 
5 | NCCNCCNCCN | 5 | 
6 | H-EETAEAKFERQHMDS-OH |  | 6.5
7 | H-KEDAADKFERQHMDS-OH |  | 7.1
8 | H-KEEAAAKFERQHMDS-OH |  | 7.1
9 | H-KEEAAEKFERQHMDS-OH |  | 6.9
10 | H-KETAAAKFERQHMDS-OH |  | 7.6
